{"source": "paper PMC6008465", "about": "(British Journal of Cancer, 2018)", "key": {"[1]": {"system": "metastatic BRAF-mutated or WT melanoma", "experiment": "Part B tumour response (RECIST 1.0)", "format": "in vivo, human", "settings": "for Duration of SD: one patient; for Median (95% CI) duration of PFS / Median (95% CI) duration of SD: Kaplan-Meier estimate", "experimental": "In Part B, an adaptive study design was planned to define an optimal dosing schedule. […] One dose escalation (from 160 mg/m^2 to 320 mg/m^2) was allowed in Schedule II for MTD determination. […] Toxicity was managed as before. Up to 30 patients with BRAF-mutated melanoma and up to 29 patients with BRAF-WT melanoma were to be enrolled in Schedule I. Up to 30 patients were to be enrolled into Schedule II once the MTD was confirmed.\nEfficacy was assessed by tumour response determined by investigator review of computed tomography/magnetic resonance imaging scans using Response Evaluation Criteria in Solid tumours version 1.0 (RECIST).[17]"}, "[2]": {"experiment": "Part B pharmacokinetics by BRAF genotype", "format": "in vivo, human", "settings": "Part B dose-expansion, by dose and genotype", "experimental": "In Part A, blood was collected on Cycle 1, Days 1 and 15 at specified intervals prior to, during, and postinfusion (5 min–8 h), and on Days 2, 3, 16, and 17 (24 and 48 h postinfusion). Urine was collected on Cycle 1, Day 1 preinfusion, at 0–8 h, and 8–24 h. In Part B, blood was collected on Cycle 1, Day 1, prior to, during, and at 1–24 h postinfusion. Pharmacokinetic parameters were calculated using noncompartmental analysis."}, "IL-8": {"system": "IL-8", "set-up": "IC50 for inhibition of spontaneous secretion of IL-8: unit not given here", "settings": "quoted in discussion, no reference given, cited from earlier work"}, "[3]": {"system": "BRAF-mutated human cancer xenograft models", "settings": "Q4D x3 schedule; cited from earlier work"}, "[4]": {"settings": "Part B, BRAF-WT 320 mg/m^2 once weekly (n=7)"}, "[5]": {"settings": "Part B, BRAF-mutated 160 mg/m^2 twice weekly (n=3)"}, "[6]": {"settings": "Part B, BRAF-mutated 320 mg/m^2 once weekly (n=20)"}}, "note": "Marks after values point to notes of the source that are not given here."}
{"compound": "CCNc1cc(O)c2c(c1)/C=C/C[C@H](O)[C@H](O)C(=O)/C=C\\[C@@H](C)[C@H](C)OC2=O", "note": "[E6201, (3S,4R,5Z,8S,9S,11E)-14-(ethylamino)-8,9,16-trihydroxy-3,4-dimethyl-3,4,9,19-tetrahydro-1H-2-benzoxacyclotetradecine-1,7 (8H)-dione]", "values": [{"measurement": "Patients with PR / patients", "setting": "[1]; Part B, BRAF-WT", "value": "1/7"}, {"measurement": "Patients with SD / patients", "setting": "[1]; Part B, BRAF-WT", "value": "1/7"}, {"measurement": "Complete response (CR)", "setting": "[1]; [4]", "value": "0 n (%)"}, {"measurement": "Disease control rate (CR+PR+SD)", "setting": "[1]; [4]", "value": "2 (28.6) n (%)"}, {"measurement": "Not evaluable (NE)", "setting": "[1]; [4]", "value": "1 (14.3) n (%)"}, {"measurement": "Overall response rate (CR+PR)", "setting": "[1]; [4]", "value": "1 (14.3) n (%)"}, {"measurement": "Partial response (PR)", "setting": "[1]; [4]", "value": "1 (14.3)^b n (%)"}, {"measurement": "Progressive disease (PD)", "setting": "[1]; [4]", "value": "2 (28.6) n (%)"}, {"measurement": "Duration of SD", "setting": "[1]; Part B, BRAF-WT 320 mg/m^2 once weekly", "value": 4, "unit": "cycles"}, {"measurement": "Disease control rate (DCR; complete response + PR + SD)", "setting": "[1]; Part B, BRAF-WT melanoma (2/7)", "value": 28.6, "unit": "%"}, {"measurement": "Complete response (CR)", "setting": "[1]; [5]", "value": "0 n (%)"}, {"measurement": "Disease control rate (CR+PR+SD)", "setting": "[1]; [5]", "value": "1 (33.3) n (%)"}, {"measurement": "Not evaluable (NE)", "setting": "[1]; [5]", "value": "0 n (%)"}, {"measurement": "Overall response rate (CR+PR)", "setting": "[1]; [5]", "value": "0 n (%)"}, {"measurement": "Partial response (PR)", "setting": "[1]; [5]", "value": "0 n (%)"}, {"measurement": "Progressive disease (PD)", "setting": "[1]; [5]", "value": "1 (33.3) n (%)"}, {"measurement": "Median (95% CI) duration of PFS", "setting": "[1]; [5]", "value": "83.5 (29.0–138.0) days"}, {"measurement": "Median (95% CI) duration of SD", "setting": "[1]; [5]", "value": "138.0 (29.0–138.0) days"}, {"measurement": "Duration of SD", "setting": "[1]; Part B, BRAF-mutated 160 mg/m^2 twice weekly", "value": "> 4", "unit": "cycles"}, {"measurement": "Patients with SD for ≥4 cycles", "setting": "[1]; Part B, BRAF-mutated 320 mg/m^2 once weekly", "value": 5, "unit": "patients"}, {"measurement": "Complete response (CR)", "setting": "[1]; [6]", "value": "0 n (%)"}, {"measurement": "Disease control rate (CR+PR+SD)", "setting": "[1]; [6]", "value": "9 (45.0) n (%)"}, {"measurement": "Not evaluable (NE)", "setting": "[1]; [6]", "value": "1 (5.0) n (%)"}, {"measurement": "Overall response rate (CR+PR)", "setting": "[1]; [6]", "value": "2 (10.0) n (%)"}, {"measurement": "Partial response (PR)", "setting": "[1]; [6]", "value": "2 (10.0)^a n (%)"}, {"measurement": "Progressive disease (PD)", "setting": "[1]; [6]", "value": "6 (30.0) n (%)"}, {"measurement": "Median (95% CI) duration of PFS", "setting": "[1]; [6]", "value": "73.0 (26.0–166.0) days"}, {"measurement": "Median (95% CI) duration of SD", "setting": "[1]; [6]", "value": "73.0 (29.0–166.0) days"}, {"measurement": "Patients with PR / patients", "setting": "[1]; Part B, BRAF-mutated melanoma", "value": "2/23"}, {"measurement": "Patients with SD / patients", "setting": "[1]; Part B, BRAF-mutated melanoma", "value": "8/23"}, {"measurement": "Disease control rate (DCR; complete response + PR + SD)", "setting": "[1]; Part B, BRAF-mutated melanoma (10/23)", "value": 43.5, "unit": "%"}, {"measurement": "Complete response (CR)", "setting": "[1]; Part B, Total (N=30)", "value": "0 n (%)"}, {"measurement": "Disease control rate (CR+PR+SD)", "setting": "[1]; Part B, Total (N=30)", "value": "12 (40.0) n (%)"}, {"measurement": "Not evaluable (NE)", "setting": "[1]; Part B, Total (N=30)", "value": "2 (6.7) n (%)"}, {"measurement": "Overall response rate (CR+PR)", "setting": "[1]; Part B, Total (N=30)", "value": "3 (10.0) n (%)"}, {"measurement": "Partial response (PR)", "setting": "[1]; Part B, Total (N=30)", "value": "3 (10.0) n (%)"}, {"measurement": "Progressive disease (PD)", "setting": "[1]; Part B, Total (N=30)", "value": "9 (30.0) n (%)"}, {"measurement": "Number of partial responses (PR)", "setting": "[1]; Part B, all", "value": "three"}, {"measurement": "Patients with SD for ≥4 cycles (3.7 months)", "setting": "[1]; Part B, all groups", "value": "seven"}, {"measurement": "Number of partial responses (PR)", "setting": "[1]; Part B, BRAF-WT melanoma, 320 mg/m^2 once-weekly", "value": 1}, {"measurement": "Number of partial responses (PR)", "setting": "[1]; Part B, V600E BRAF-mutated melanoma, 320 mg/m^2 once-weekly", "value": 2}, {"measurement": "Response of brain metastases", "setting": "[1]; one patient with BRAF-mutated melanoma who achieved a PR", "value": "brain metastases that responded to treatment"}, {"measurement": "Effect of BRAF mutation on PK properties", "setting": "[2]", "value": "no effect"}, {"measurement": "IC50 for inhibition of spontaneous secretion of IL-8", "setting": "IL-8", "value": 8.19}, {"measurement": "IC50", "setting": "IL-8; read-out: IC50 for inhibition of spontaneous secretion of IL-8", "value": 0.0218, "unit": "µM"}, {"measurement": "Duration of significant and prolonged anti-tumour activity from first dose", "setting": "[3]", "value": "> 20", "unit": "days"}]}
